Experiment [1] concerns NQO1 specific enzyme activity in BEAS-2B cells (marker for NRF2 activation). Description: BEAS-2B NQO1 MTT Assay. It is filed as cell-based. Conditions: Homo sapiens, compound incubated 48 hours, read-out: EC50 (NQO1 specific enzyme activity induction). Put shortly: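 BEAS-2B cells treated with compound for 48 h at 37 °C, then lysed; NQO1 activity in lysates measured kinetically by MTT reduction at A570 over 30 min. pEC50 from 3-parameter fit of ΔOD/min versus log concentration; lysate also taken for Cell Titer Glo.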

Experiment [2] deals with T1, Keap1 Kelch domain (321-609) / TAMRA-labeled 16mer NRF2 peptide (ETGE motif) (Homo sapiens, UniProt Q14145).
T1 construct: the Kelch domain (321-609) of Keap1 is used
T1 sequence (Q14145 321-609): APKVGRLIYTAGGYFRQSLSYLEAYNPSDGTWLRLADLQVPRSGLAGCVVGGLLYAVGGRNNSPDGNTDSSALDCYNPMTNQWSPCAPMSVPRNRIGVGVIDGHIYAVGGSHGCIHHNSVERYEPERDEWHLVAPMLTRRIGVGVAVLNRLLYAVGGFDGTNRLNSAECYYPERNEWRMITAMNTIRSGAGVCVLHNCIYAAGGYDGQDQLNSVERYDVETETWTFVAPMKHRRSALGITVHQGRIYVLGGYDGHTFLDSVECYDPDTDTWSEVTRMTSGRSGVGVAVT
Description: NRF2-Keap1 FP Assay (Keap1 Kelch fluorescence polarization). The note with it: 20 nM Keap1 (321-609), 8 nM Tamra labeled peptide. It is filed as binding. Put shortly: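 Compound dilutions (3-fold) were incubated 1 hr at room temperature with 20 nM Keap1 Kelch (321-609) and 8 nM TAMRA-labeled ETGE 16mer peptide. Buffer was 50 mM Tris pH 8.0, 100 mM NaCl, 5 mM MgCl2, 1 mM DTT, 2 mM CHAPS, 0.005% BSA. Fluorescence polarization (mP) was normalized to controls and fitted with a four-parameter equation to give pIC50.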
(In fluorescence polarisation assays a small probe gives low polarisation when free and higher when bound to something large.)

Experiment [3] deals with T2, full length Keap1 protein / full length NRF2 protein (Homo sapiens, UniProt Q14145).
T2 construct: full length NRF2 protein and full length Keap1 protein (Keap1 exists a dimer) are used; His
T2 sequence (Q14145 whole entry): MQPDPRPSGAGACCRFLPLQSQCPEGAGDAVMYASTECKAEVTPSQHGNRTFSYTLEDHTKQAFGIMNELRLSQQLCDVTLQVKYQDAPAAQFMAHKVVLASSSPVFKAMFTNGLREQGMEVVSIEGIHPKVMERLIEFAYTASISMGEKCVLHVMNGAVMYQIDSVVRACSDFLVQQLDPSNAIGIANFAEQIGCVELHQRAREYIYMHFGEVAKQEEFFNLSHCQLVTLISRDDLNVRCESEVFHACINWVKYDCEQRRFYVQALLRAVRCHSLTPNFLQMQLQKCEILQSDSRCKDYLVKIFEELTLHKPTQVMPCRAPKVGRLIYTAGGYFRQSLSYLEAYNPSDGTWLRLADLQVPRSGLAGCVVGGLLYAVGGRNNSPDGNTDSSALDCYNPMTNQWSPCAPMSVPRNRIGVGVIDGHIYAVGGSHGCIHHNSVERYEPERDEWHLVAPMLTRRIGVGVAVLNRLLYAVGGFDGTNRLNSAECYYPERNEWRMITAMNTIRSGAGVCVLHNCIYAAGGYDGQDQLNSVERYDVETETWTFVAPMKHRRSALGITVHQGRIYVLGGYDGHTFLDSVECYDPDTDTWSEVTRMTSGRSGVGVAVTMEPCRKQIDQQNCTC
Description: NRF2-Keap1 TR-FRET Assay. It is filed as binding. Conditions: 25 nM Keap1-FlagHis and 50 nM biotin-NRF2 added. The source says:
In the NRF2-Keap1 TR-FRET (time-resolved fluorescence resonance energy transfer) assay, full length NRF2 protein and full length Keap1 protein (Keap1 exists a dimer) are used. The assay detects the ability of compound to displace the binding of FlagHis-tagged Keap1 with biotinylated, Avi-tagged NRF2 protein. Biotin-NRF2 binds to streptavidin-europium (a component of the detection mix) and Keap1-FlagHis is recognized by anti-Flag APC (allophycocyanin) antibody (also a component of the detection mix). If binding occurs between the two proteins, there will be an energy transfer from the Eu+3 (donor) at 615 nm to the APC (acceptor) at 665 nm. A potential Keap1 inhibitor will cause a reduction in the TR-FRET signal by interfering with the binding of Keap1 to NRF2.
One hundred nanoliters of 100× compound dose response curves (serial 3-fold dilutions) in DMSO are stamped using an Echo liquid handling system (Labcyte) into 384-well, low volume, black assay plates (Greiner, #784076), with DMSO in columns 6 and 18. The top concentration of compound is located in columns 1 and 13. All reagents are diluted in assay buffer (50 mM Tris, pH 8.0, 5 mM MgCl2, 100 mM NaCl, 0.005% BSA, 1 mM DTT, and 2 mM CHAPS). The BSA, DTT, and CHAPS are added to the assay buffer on the day of assay. Using a Multidrop Combi (Thermo Electron Corporation) equipped with a metal tip dispenser, 5 ul of 25 nM Keap1-FlagHis protein is added to all wells of the compound plate, with the exception of the wells in column 18. Wells in column 18 receive 5 ul of assay buffer instead. Plates are centrifuged at 500 rpm for 1 minute, covered with a plate lid, and incubated at 37° C. for 2.25 hours. Plates are then removed from the incubator and allowed to cool to RT for 15 minutes. Five microliters of 50 nM biotin-NRF2 protein is then added to all wells of the plates and the plates are spun at 500 rpm for 1 minute, followed by incubating at 4° C. for 1.25 hours. The plates are then allowed to warm to RT for 15 minutes, followed by the addition of 10 ul of detection mix (1 nM Streptavidin Eu+ W1024 and 5 ug/ml mouse anti-DYKDDDDK IgG conjugated to SureLight APC antibody; both from Columbia Biosciences) to all wells. Plates are spun at 500 rpm for 1 minute, incubated for 1 hour at RT, and read on an Envision plate reader using a 320 nm excitation filter and 615 nm and 665 nm emission filters. Compound response (% inhibition) and potency (pIC50) are calculated based on the ratio of the two emissions (665 nm/615 nm) and then the transformed data is normalized against controls in the assay (control 1=1% DMSO in the presence of NRF2 and Keap1 protein and control 2=1% DMSO in the absence of protein). Data analysis is handled using the software package Abase XE (Surrey, United Kingdom). The % inhibition values are calculated from the ratio (transformed) data by the equation: 100−(100*(compound response−average control 2)/(average control 1−average control2)). For calculation of pIC50s, Abase XE uses a four parameter equation. pIC50 is the negative log of the IC50.
In general terms: TR-FRET usually uses a lanthanide donor and a delayed reading to cut background.

SMILES strings stand for the structures. Read-outs that look alike come from different tables or passages of the source.

Broadly, the EC50 is the concentration needed to bring the measured effect to its halfway point. Usually IC50 stands for the concentration that gives 50% inhibition. A lower IC50 goes with inhibition by little substance.

With `CCCN(CC1CC1)C(=O)c1cccc(-c2cccc(-n3ncc(C(=O)O)c3C3CC3)c2)c1F` [Example 9, 5-Cyclopropyl-1-(3-{3-[(cyclopropylmethyl)(propyl)carbamoyl]-2-fluorophenyl}phenyl)-1H-pyrazole-4-carboxylic Acid], the concentration giving a half-maximal response (EC50) in experiment [1] is 1 to 10 µM. Besides, the IC50 in experiment [2] lay within 0.01 to 0.1 µM; in experiment [3], 1 to 10 µM.

For `O=C(O)c1cnn(-c2cccc(-c3cccc(C(=O)N4CCCCCC4)c3)c2)c1C1CC1` [Example 10, 1-{3-[3-(Azepane-1-carbonyl)phenyl]phenyl}-5-cyclopropyl-1H-pyrazole-4-carboxylic Acid], in experiment [1], the EC50 fell in the range of 1 to 10 µM. Further, the concentration for half-maximal inhibition (IC50) in experiment [2] lay within 0.1 to 1 µM; in experiment [3], 1 to 10 µM.

For the compound `CC(C)Oc1cccc(-c2cccc(-n3ncc(C(=O)O)c3C(F)(F)F)c2)c1` [Example 11, 1-{3-[3-(propan-2-yloxy)phenyl]phenyl}-5-(trifluoromethyl)-1H-pyrazole-4-carboxylic Acid], the EC50 in experiment [1] was in the range of 1 to 10 µM. For the same compound, the 50% inhibitory concentration (IC50) in experiment [2] was in the range of 1 to 10 µM; in experiment [3] it was 10 to 100 µM.

Turning to `CN(CC1CCCC1)C(=O)c1cccc(-c2cccc(-n3ncc(C(=O)O)c3C3CC3)c2)c1F` [Example 12, 1-(3-{3-[(Cyclopentylmethyl)(methyl)carbamoyl]-2-fluorophenyl}phenyl)-5-cyclopropyl-1H-pyrazole-4-carboxylic Acid], in experiment [1], the EC50 lay in the range of 1 to 10 µM. For the same compound, the values for the concentration for half-maximal inhibition (IC50) in experiment [2] and in experiment [3] were 0.01 to 0.1 µM and 0.1 to 1 µM, respectively.

For `CCCN(CC1CC1)C(=O)c1cccc(-c2cccc(-n3ncc(C(=O)O)c3C3CC3)c2)c1Cl` [Example 15, 1-(3-{2-Chloro-3-[(cyclopropylmethyl)(propyl)carbamoyl]phenyl}phenyl)-5-cyclopropyl-1H-pyrazole-4-carboxylic Acid], in experiment [1], the EC50 fell in the range of 1 to 10 µM. The IC50 in experiment [2] was in the range of 0.1 to 1 µM; in experiment [3] it was 1 to 10 µM.

In the case of `CCCN(CC1CC1)C(=O)c1cccc(-c2cccc(-n3ncc(C(=O)O)c3C3CC3)c2)c1C` [Example 16, 5-Cyclopropyl-1-(3-{3-[(cyclopropylmethyl)(propyl)carbamoyl]-2-methylphenyl}phenyl)-1H-pyrazole-4-carboxylic Acid], the concentration for a half-maximal effect (EC50) in experiment [1] lay in the range of 1 to 10 µM. Also, the IC50 in experiment [2] was in the range of 0.1 to 1 µM; in experiment [3], 1 to 10 µM.

With `O=C(O)c1cnn(-c2cccc(-c3cccc(C(=O)N4CCCC(C(F)(F)F)C4)c3F)c2)c1C1CC1` (stereo not drawn) [Example 18, 5-Cyclopropyl-1-(3-{2-fluoro-3-[3-(trifluoromethyl)piperidine-1-carbonyl]phenyl}phenyl)-1H-pyrazole-4-carboxylic Acid], the half-maximal effective concentration (EC50) in experiment [1] lay within 1 to 10 µM. Further, the IC50 was in the range of 0.1 to 1 µM in experiment [2] and 1 to 10 µM in experiment [3].

Turning to `O=C(O)c1cnn(-c2cccc(-c3cccc(C(=O)N4CCCCC45CC5)c3F)c2)c1C1CC1` [Example 19, 1-[3-(3-{4-Azaspiro[2.5]octane-4-carbonyl}-2-fluorophenyl)phenyl]-5-cyclopropyl-1H-pyrazole-4-carboxylic Acid], in experiment [1], the EC50 was 1 to 10 µM. Moreover, the IC50 in experiment [2] was in the range of 0.1 to 1 µM; in experiment [3] it was 1 to 10 µM.

For the compound `O=C(O)c1cnn(-c2cccc(-c3cccc(C(=O)N4CCCCC4)c3F)c2)c1C1CC1` [Example 20, 5-Cyclopropyl-1-{3-[2-fluoro-3-(piperidine-1-carbonyl)phenyl]phenyl}-1H-pyrazole-4-carboxylic Acid], the half-maximal effective concentration (EC50) in experiment [1] fell in the range of 1 to 10 µM. Moreover, the 50% inhibitory concentration (IC50) in experiment [2] is 0.1 to 1 µM; in experiment [3], 1 to 10 µM.

Regarding `COCC1CCCCN1C(=O)c1cccc(-c2cccc(-n3ncc(C(=O)O)c3C3CC3)c2)c1F` (stereo not drawn) [Example 22, 5-Cyclopropyl-1-(3-{2-fluoro-3-[2-(methoxymethyl)piperidine-1-carbonyl]phenyl}phenyl)-1H-pyrazole-4-carboxylic Acid], the EC50 in experiment [1] lay in the range of 1 to 10 µM. Besides, the IC50 in experiment [2] was 0.01 to 0.1 µM; in experiment [3], 1 to 10 µM.

Take `O=C(O)c1cnn(-c2cccc(-c3cccc(C(=O)N(CCC(F)(F)F)CC4CC4)c3F)c2)c1C1CC1` [Example 23, 5-Cyclopropyl-1-(3-{3-[(cyclopropylmethyl)(3,3,3-trifluoropropyl)carbamoyl]-2-fluorophenyl}phenyl)-1H-pyrazole-4-carboxylic Acid]: the EC50 in experiment [1] lay within 1 to 10 µM. For the same compound, the IC50 in experiment [2] was in the range of 0.1 to 1 µM; in experiment [3], 1 to 10 µM.

As for `CC1CCC(C)N1C(=O)c1cccc(-c2cccc(-n3ncc(C(=O)O)c3C3CC3)c2)c1F` (stereo not drawn) [Example 24, 5-Cyclopropyl-1-{3-[3-(2,5-dimethylpyrrolidine-1-carbonyl)-2-fluorophenyl]phenyl}-1H-pyrazole-4-carboxylic Acid], the half-maximal effective concentration (EC50) in experiment [1] was 1 to 10 µM. Moreover, the IC50 in experiment [2] is 0.1 to 1 µM; in experiment [3], 1 to 10 µM.

As to `CCCC1CCCN1C(=O)c1cccc(-c2cccc(-n3ncc(C(=O)O)c3C3CC3)c2)c1F` (stereo not drawn) [Example 26, 5-Cyclopropyl-1-{3-[2-fluoro-3-(2-propylpyrrolidine-1-carbonyl)phenyl]phenyl}-1H-pyrazole-4-carboxylic Acid], the EC50 in experiment [1] is 1 to 10 µM. Also, the values for the half-inhibitory concentration (IC50) in experiment [2] and in experiment [3] were 0.01 to 0.1 µM and 0.1 to 1 µM, respectively.

For `CCCC1COCCN1C(=O)c1cccc(-c2cccc(-n3ncc(C(=O)O)c3C3CC3)c2)c1F` (stereo not drawn) [Example 27, 5-Cyclopropyl-1-{3-[2-fluoro-3-(3-propylmorpholine-4-carbonyl)phenyl]phenyl}-1H-pyrazole-4-carboxylic Acid], in experiment [1], the 50% effective concentration (EC50) was in the range of 1 to 10 µM. The 50% inhibitory concentration (IC50) in experiment [2] was 0.01 to 0.1 µM; in experiment [3], 0.1 to 1 µM.

Regarding `O=C(O)c1cnn(-c2cccc(-c3cccc(C(=O)N4C5CCC4COC5)c3F)c2)c1C1CC1` [Example 32, 5-cyclopropyl-1-[3-(2-fluoro-3-{3-oxa-8-azabicyclo[3.2.1]octane-8-carbonyl}phenyl)phenyl]-1H-pyrazole-4-carboxylic Acid], the half-maximal effective concentration (EC50) in experiment [1] lay in the range of 1 to 10 µM. In addition, the values for the 50% inhibitory concentration (IC50) in experiment [2] and in experiment [3] were 0.1 to 1 µM and 1 to 10 µM, respectively.

As for `Cc1ccnn1-c1cccc(-c2cccc(-n3ncc(C(=O)O)c3C3CC3)c2)c1` [Example 36, 5-Cyclopropyl-1-{3-[3-(5-methyl-1H-pyrazol-1-yl)phenyl]phenyl}-1H-pyrazole-4-carboxylic Acid], the EC50 in experiment [1] (BEAS-2B, 48 h) lay in the range of 1 to 10 µM. In addition, the IC50 was 0.1 to 1 µM in experiment [2] and 1 to 10 µM in experiment [3].

Take `Cc1ccnn1-c1cccc(-c2cccc(-n3ncc(C(=O)O)c3C3CC3)c2)c1F` [Example 39, 5-cyclopropyl-1-{3-[2-fluoro-3-(5-methyl-1H-pyrazol-1-yl)phenyl]phenyl}-1H-pyrazole-4-carboxylic Acid]: the EC50 in experiment [1] fell in the range of 1 to 10 µM. For the same compound, the IC50 lay in the range of 0.1 to 1 µM in experiment [2] and 1 to 10 µM in experiment [3].

For the compound `O=C(O)c1cnn(-c2cccc(-c3cccc(C(=O)N4CCCC5(CCCOC5)C4)c3F)c2)c1C1CC1` (stereo not drawn) [Example 43, 5-Cyclopropyl-1-[3-(2-fluoro-3-{2-oxa-8-azaspiro[5.5]undecane-8-carbonyl}phenyl)phenyl]-1H-pyrazole-4-carboxylic Acid], in experiment [1], the EC50 lay in the range of 1 to 10 µM. The IC50 in experiment [2] was in the range of 0.01 to 0.1 µM; in experiment [3] it was 0.1 to 1 µM.
